The values below come from ChEMBL document CHEMBL1146712, “Synthesis and biological evaluation of [4-(2-phenylethenesulfonylmethyl)phenyl]-quinazolin-4-yl-amines as orally active anti-cancer agents” (2004).

Each structure is given as a SMILES string.

Assay [1] concerns U-251. Description: Concentration required to inhibit growth of human CNS (U251) cell line. The assay is classed as functional.
The subject of assay [2] is UACC-62. Description: Concentration required to inhibit growth of human melanoma (UACC62) cell line. The assay is classed as functional.
Assay [3] deals with SK-OV-3. Description: Concentration required to inhibit growth of human ovarian (SK-OV3) cell line. The assay is classed as functional.
The subject of assay [4] is ACHN. Description: Concentration required to inhibit growth of human renal (ACHN) cell line. The assay is classed as functional.
Assay [5] concerns HT-29. In words: Concentration required to inhibit growth of human colon (HT-29) cell line. The assay is classed as functional.
Assay [6] relates to PC-3. Description: Concentration required to inhibit growth of human prostate (PC3) cell line. Format: functional.
Assay [7] relates to MCF7. In words: Concentration required to inhibit growth of human breast (MCF-7) cell line. Format: functional.
The subject of assay [8] is NCI/ADR-RES. Description: in vitro inhibition of MCF-7/ADR (human breast cancer) cell growth. The assay is classed as functional.
The test system of assay [9] is SW-620. In words: Concentration required to inhibit growth of human colon (SW620) cell line. Format: functional.
Assay [10] deals with NCI-H522 (Homo sapiens). In words: Concentration required to inhibit growth of human lung (H522) cell line.
The test system of assay [11] is DU-145. Description: In vitro inhibition of DU145 (human prostate cancer) cell growth. Format: functional.
Assay [12] deals with OVCAR-8. Description: Concentration required to inhibit growth of human ovarian (OVCAR8) cell line. The assay is classed as functional.
Assay [13] has as its system Mus musculus. In words: (§1) Anticancer activity after implantation of HT-29 human adeno carcinoma xenograft in mice at a dose of 300 mg/kg. Format: functional. On the set-up: reference not given here. For orientation: Xenograft models place foreign cells or tissue in a host animal.
Assay [14] relates to Mus musculus. Described as §1. Format: functional.
Assay [15] deals with Mus musculus. Description: Anticancer activity after implantation of HT-29 human adeno carcinoma xenograft in mice at a dose of 300 mg/kg; 0/6. Format: functional.
Assay [16] deals with Mus musculus. Description: Anticancer activity after implantation of HT-29 human adeno carcinoma xenograft in mice at a dose of 300 mg/kg; 1/6. Format: functional.

As a reminder, the GI50 is the concentration at which growth is held to half of that of the control. As for `O=S(=O)(/C=C/c1ccccc1)Cc1ccc(Nc2ncnc3ccccc23)cc1`, the GI50 in assay [1] is more than 100 µM; in assay [2] it was more than 100 µM; in assay [3], 5 µM; in assay [4], 58 µM; in assay [5] it was more than 100 µM; in assay [6] it was more than 100 µM. Further, the GI50 in assay [7] is 74 µM; in [8], more than 100 µM; in [9], more than 100 µM; in [10], more than 100 µM; in assay [11] it was 2 µM; in assay [12], more than 100 µM.

As a reminder, the inhibition in vivo is the percentage by which the read-out fell short of the control. In the case of `COc1cc2ncnc(Nc3ccc(CS(=O)(=O)/C=C/c4ccc(Cl)cc4Cl)cc3)c2cc1OC`, the GI50 was found to be 13 µM in assay [1]; 21 µM in assay [2]; 2 µM in assay [3]; 15 µM in assay [4]; 6 µM in assay [5]; 5 µM in assay [6]. Further, the GI50 in [7] is 11 µM; in assay [8] it was 24 µM; in [9] it was 2 µM; in assay [10] it was 6 µM; in [11] it was 1.4 µM; in [12], 2 µM. Also, the Mean body weight in [13] was 12%. Also, at 300 mg/kg the inhibition in vivo in assay [14] was 68%. In addition, the Mortality in assay [15] amounted to 0.

For the compound `O=S(=O)(/C=C/c1ccc(Cl)cc1Cl)Cc1ccc(Nc2ncnc3ccc(Br)cc23)cc1`, the GI50 in [1] is 4 µM; in assay [2] it was 2 µM; in assay [3], 1 µM; in assay [4], 0.1 µM; in assay [5] it was 28 µM; in assay [6], 4 µM. In addition, the GI50 was 4 µM in assay [7]; more than 100 µM in [8]; more than 100 µM in [9]; 8 µM in assay [10]; 2 µM in assay [11]; 3 µM in assay [12]. The same compound displayed a Mean body weight in assay [13] of 4%. The Mortality in assay [16] is reported as 1. In assay [14], this compound had an inhibition in vivo at 300 mg/kg of 22%.

With `O=S(=O)(/C=C/c1ccc(F)cc1F)Cc1ccc(Nc2ncnc3cc(Cl)ccc23)cc1`, the GI50 in assay [1], in assay [2], in assay [3], in assay [4], in assay [5] and in assay [6] was more than 100 µM in each case. In addition, the GI50 in assay [7], in assay [8], in assay [9], in assay [10], in [11] and in [12] was more than 100 µM each time.

Take `N#Cc1ccc(/C=C/S(=O)(=O)Cc2ccc(Nc3ncnc4ccccc34)cc2)cc1`: the GI50 in [1], in assay [2], in assay [3], in assay [4], in assay [5] and in assay [6] was more than 100 µM throughout. Besides, the GI50 in assay [7], in [8], in assay [9], in assay [10], in assay [11] and in assay [12] was more than 100 µM throughout.

In the case of `O=S(=O)(/C=C/c1ccc(F)cc1Cl)Cc1ccc(Nc2ncnc3cc(Cl)ccc23)cc1`, the GI50 is 2 µM in assay [1]; 72 µM in assay [2]; more than 100 µM in assay [3]; 17 µM in assay [4]; more than 100 µM in assay [5]; 73 µM in assay [6]. Further, the GI50 is 15 µM in assay [7]; more than 100 µM in assay [8]; more than 100 µM in [9]; 37 µM in assay [11]; more than 100 µM in assay [12].

Consider `O=S(=O)(/C=C/c1ccc(F)cc1)Cc1ccc(Nc2ncnc3ccccc23)cc1`, for which the GI50 in assay [1] came to 0.01 µM; in [2], 5 µM; in assay [3], 2 µM; in assay [4] it was 0.01 µM; in assay [5] it was 1 µM; in assay [6], 1 µM. The GI50 in assay [7] is 16 µM; in assay [9] it was 100 µM; in assay [10], 13 µM; in [11], 0.3 µM; in assay [12] it was 2 µM. The Mean body weight in assay [13] is 5%. Also, the inhibition in vivo at 300 mg/kg in assay [14] stood at 84%. In assay [15], this compound registered a Mortality of 0.

For the compound `O=S(=O)(/C=C/c1ccc(Br)cc1)Cc1ccc(Nc2ncnc3ccccc23)cc1`, the GI50 is more than 100 µM in [1]; more than 100 µM in assay [2]; 1 µM in assay [3]; 0.2 µM in assay [4]; more than 100 µM in assay [5]; 42 µM in assay [6]. Also, the GI50 in assay [7] is 91 µM; in [8], more than 100 µM; in [9] it was more than 100 µM; in [10] it was more than 100 µM; in [11] it was 55 µM; in [12] it was 38 µM.

On to `O=S(=O)(/C=C/c1ccc(Cl)cc1)Cc1ccc(Nc2ncnc3ccccc23)cc1`, for which the GI50 in assay [1] is 49 µM; in assay [2] it was 13 µM; in assay [3], 54 µM; in assay [4], more than 100 µM; in assay [5], 73 µM; in assay [6] it was 43 µM. Also, the GI50 in assay [7] was 52 µM; in assay [8], more than 100 µM; in assay [9], 77 µM; in [10], 46 µM; in assay [11], more than 100 µM; in [12], more than 100 µM.

As to `O=S(=O)(/C=C/c1ccc(C(F)(F)F)cc1F)Cc1ccc(Nc2ncnc3cc(Cl)ccc23)cc1`, the GI50 in assay [1], in [2], in [3], in assay [4], in [5] and in [6] was more than 100 µM in each case. The GI50 in assay [7], in assay [8], in assay [9], in assay [10], in assay [11] and in assay [12] was more than 100 µM each time.

On to `COc1cc2ncnc(Nc3ccc(CS(=O)(=O)/C=C/c4ccc(F)cc4)cc3)c2cc1OCCCN1CCOCC1`, for which the GI50 in assay [1] is 18 µM; in assay [2], 55 µM; in [3] it was more than 100 µM; in assay [4] it was 0.2 µM; in assay [5] it was more than 100 µM; in [6], 28 µM. Besides, the concentration for 50% growth inhibition (GI50) was 3 µM in assay [7]; 3 µM in [8]; more than 100 µM in assay [9]; more than 100 µM in assay [10]; 4 µM in assay [11]; more than 100 µM in assay [12].

As for `CC(C)(C)c1cc(/C=C/S(=O)(=O)Cc2ccc(Nc3ncnc4ccccc34)cc2)cc(C(C)(C)C)c1O`, the GI50 in assay [1] is 38 µM; in [2], 6 µM; in assay [3], 3 µM; in [4], more than 100 µM; in assay [5], 17 µM; in [6], 7 µM. The GI50 was 13 µM in assay [7]; more than 100 µM in assay [8]; 9 µM in [9]; 45 µM in assay [10]; 1 µM in [11]; 5 µM in assay [12].

Consider `COc1cc2ncnc(Nc3ccc(CS(=O)(=O)/C=C/c4ccc(F)cc4)cc3)c2cc1OC`, for which the GI50 in assay [1], in assay [2], in assay [3], in [4], in assay [5] and in assay [6] was more than 100 µM in each case. Further, the GI50 in [7], in [8], in assay [9], in assay [10], in assay [11] and in [12] was more than 100 µM each time.

With `O=S(=O)(/C=C/c1ccc(Cl)cc1Cl)Cc1ccc(Nc2ncnc3ccccc23)cc1`, the GI50 was found to be 4 µM in assay [1]; 2 µM in assay [2]; 2 µM in assay [3]; 0.1 µM in assay [4]; 24 µM in assay [5]; 19 µM in assay [6]. In addition, the GI50 was 4 µM in [7]; 5 µM in [8]; 14 µM in assay [9]; 12 µM in assay [10]; 3 µM in assay [11]; 4 µM in assay [12]. In addition, the Mean body weight in assay [13] turned out to be 7%. Moreover, in assay [14], the inhibition in vivo at 300 mg/kg amounted to 22%. Further, the Mortality in [15] worked out at 0.
